Results on 18 compounds are retold here after PubChem BioAssay AID248 (DTP/NCI, 2004).

Values joined by “and” are separate entries in the source; they are usually repeats but may differ in a detail not shown here. Equal entries are not always repeated. Inconclusive results and toxic doses are left out.

The subject of this assay is L1210 leukemia ip in BDF1 mice, survival T/C. As to the kind of experiment: NCI In Vivo Anticancer Drug Screen. Data for tumor model L1210 Leukemia (intraperitoneal) in B6D2F1 (BDF1) mice. The conditions noted are these: endpoint: mean survival time, higher = longer survival. The method, boiled down: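 Transplantable tumor model; survival measured in treated vs vehicle control mice. Value = treated/control.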

The mark [1] stands for this setting: dose: 100.0 mg/kg/injection, schedule: Q04DX003 (ip), vehicle: saline.
The mark [2] stands for this setting: dose: 200.0 mg/kg/injection, schedule: Q04DX003 (ip), vehicle: saline.
Setting [3] is: dose: 150.0 mg/kg/injection, schedule: Q01DX001 (ip), vehicle: carboxymethylcellulose (CMC).
Where [4] appears, read: dose: 300.0 mg/kg/injection, schedule: Q01DX001 (ip), vehicle: carboxymethylcellulose (CMC).
Setting [5] is: dose: 100.0 mg/kg/injection, schedule: Q01DX009 (ip), vehicle: saline with Tween-80.
Setting [6] is: dose: 100.0 mg/kg/injection, schedule: Q01DX009 (ip), vehicle: Klucel (hydroxypropylcellulose) (HPC).
Where [7] appears, read: dose: 100.0 mg/kg/injection, schedule: Q04DX002 (ip), vehicle: Klucel (hydroxypropylcellulose) (HPC).
[8] abbreviates: dose: 100.0 mg/kg/injection, schedule: Q04DX003 (ip), vehicle: Klucel (hydroxypropylcellulose) (HPC).
Setting [9] is: dose: 200.0 mg/kg/injection, schedule: Q01DX009 (ip), vehicle: Klucel (hydroxypropylcellulose) (HPC).
[10] abbreviates: dose: 200.0 mg/kg/injection, schedule: Q04DX002 (ip), vehicle: Klucel (hydroxypropylcellulose) (HPC).
[11] abbreviates: dose: 200.0 mg/kg/injection, schedule: Q04DX003 (ip), vehicle: Klucel (hydroxypropylcellulose) (HPC).
Setting [12] is: dose: 400.0 mg/kg/injection, schedule: Q04DX002 (ip), vehicle: Klucel (hydroxypropylcellulose) (HPC).
Where [13] appears, read: dose: 400.0 mg/kg/injection, schedule: Q04DX003 (ip), vehicle: Klucel (hydroxypropylcellulose) (HPC).
Setting [14] is: dose: 100.0 mg/kg/injection, schedule: Q01DX001 (ip), vehicle: saline.
The mark [15] stands for this setting: dose: 200.0 mg/kg/injection, schedule: Q01DX001 (ip), vehicle: saline.
[16] abbreviates: dose: 400.0 mg/kg/injection, schedule: Q01DX001 (ip), vehicle: saline.

Turning to `Cc1c(C(=O)O)c(C(=O)O)c(C)n1-c1ccccc1C(=O)O` (tested in a mixture with another compound), the T/C is, setting by setting: under setting [1], 106 % of control; under setting [2], 101 % of control.

With `CN(N=O)C(=O)NCCCNC(=O)N(C)N=O`, the T/C (dose: 6.25 mg/kg/injection, schedule: Q01DX Z (ip), vehicle: carboxymethylcellulose (CMC)) is 118 % of control; the T/C (dose: 12.5 mg/kg/injection, schedule: Q01DX Z (ip), vehicle: carboxymethylcellulose (CMC)) was 101 % of control; the T/C (dose: 25.0 mg/kg/injection, schedule: Q01DX Z (ip), vehicle: carboxymethylcellulose (CMC)) is 112 % of control; the T/C (dose: 100.0 mg/kg/injection, schedule: Q01DX Z (ip), vehicle: carboxymethylcellulose (CMC)) is 200 % of control; the T/C under setting [3] is 120 % of control; the T/C (dose: 150.0 mg/kg/injection, schedule: Q01DX001 (ip), vehicle: saline) is 102 % of control. The T/C reads like this: (dose: 250.0 mg/kg/injection, schedule: Q01DX Z (ip), vehicle: carboxymethylcellulose (CMC)) 121 % of control; under setting [4], 123 % of control; (dose: 300.0 mg/kg/injection, schedule: Q01DX001 (ip), vehicle: saline) 112 % of control; (dose: 300.0 mg/kg/injection, schedule: Q01DX Z (ip), vehicle: carboxymethylcellulose (CMC)) 90 % of control; (dose: 600.0 mg/kg/injection, schedule: Q01DX001 (ip), vehicle: saline) 109 % of control.

With `NC(=S)N1N=C(c2ccccc2)CC1=O`, the T/C (dose: 75.0 mg/kg/injection, schedule: Q01DX001 (ip), vehicle: carboxymethylcellulose (CMC)) is 107 % of control; the T/C under setting [3] was 96 % of control; the T/C under setting [4] was 96 % of control.

`N=C(N)/C=C\C(=O)O`: the T/C is 93 % of control (dose: 5.0 mg/kg/injection, schedule: Q01DX Z (ip), vehicle: carboxymethylcellulose (CMC)); 103 % of control (dose: 10.0 mg/kg/injection, schedule: Q01DX Z (ip), vehicle: carboxymethylcellulose (CMC)); 101 % of control (dose: 20.0 mg/kg/injection, schedule: Q01DX Z (ip), vehicle: carboxymethylcellulose (CMC)).

`[Cl][Fe]([Cl])([Cl])[Cl].c1ccc(-c2cc(-c3ccccc3)[o+]c(-c3ccccc3)c2)cc1`: the T/C (dose: 25.0 mg/kg/injection, schedule: Q01DX009 (ip), vehicle: saline with Tween-80) was 87 % of control; the T/C (dose: 50.0 mg/kg/injection, schedule: Q01DX009 (ip), vehicle: saline with Tween-80) was 88 % of control; the T/C under setting [5] was 90 % of control.

On to `O=C(Oc1ccccc1[N+](=O)[O-])Oc1ccccc1[N+](=O)[O-]`, for which the T/C by setting is: (dose: 100.0 mg/kg/injection, schedule: Q01DX001 (ip), vehicle: carboxymethylcellulose (CMC)) 96 % of control; (dose: 200.0 mg/kg/injection, schedule: Q01DX001 (ip), vehicle: carboxymethylcellulose (CMC)) 93 % of control; (dose: 400.0 mg/kg/injection, schedule: Q01DX001 (ip), vehicle: carboxymethylcellulose (CMC)) 104 % of control.

Regarding `COc1ccc(Cc2ccc(OC)c(OC)c2)cc1OC`, the T/C (dose: 200.0 mg/kg/injection, schedule: Q04DX003 (ip), vehicle: acetone) is 124 % of control and the T/C (dose: 400.0 mg/kg/injection, schedule: Q04DX003 (ip), vehicle: acetone) was 100 % of control.

`O=C(O)/C(=C\c1ccc([N+](=O)[O-])cc1)c1cccc(Cl)c1`: the T/C by setting is: (dose: 100.0 mg/kg/injection, schedule: Q01DX001 (ip), vehicle: Klucel (hydroxypropylcellulose) (HPC)) 108 % of control; under setting [6], 96 % of control and 97 % of control; under setting [7], 94 % of control and 89 % of control; under setting [8], 106 % of control; (dose: 200.0 mg/kg/injection, schedule: Q01DX001 (ip), vehicle: Klucel (hydroxypropylcellulose) (HPC)) 103 % of control; under setting [9], 97 % of control and 102 % of control. In addition, the T/C reads like this: under setting [10], 101 % of control and 102 % of control; under setting [11], 97 % of control; (dose: 400.0 mg/kg/injection, schedule: Q01DX001 (ip), vehicle: Klucel (hydroxypropylcellulose) (HPC)) 98 % of control; under setting [12], 99 % of control; under setting [13], 99 % of control.

For the compound `O=C(O)c1ccc2ccccc2c1C(=O)c1ccc(F)cc1`, the T/C by setting is: under setting [7], 101 % of control; (dose: 100.0 mg/kg/injection, schedule: Q04DX003 (ip), vehicle: other) 113 % of control; under setting [10], 96 % of control; (dose: 200.0 mg/kg/injection, schedule: Q04DX003 (ip), vehicle: other) 97 % of control; under setting [12], 92 % of control; (dose: 400.0 mg/kg/injection, schedule: Q04DX003 (ip), vehicle: other) 97 % of control.

With `CC(=O)CC(=O)Nc1cc(C)c(NC(=O)CC(C)=O)cc1C`, the T/C runs as follows: under setting [6], 95 % of control; under setting [8], 98 % of control; under setting [9], 93 % of control; under setting [11], 96 % of control; (dose: 400.0 mg/kg/injection, schedule: Q01DX009 (ip), vehicle: Klucel (hydroxypropylcellulose) (HPC)) 103 % of control; under setting [13], 98 % of control.

As to `CC(O)CN(Cc1c(O)ccc2ccccc12)CC(C)OS(C)(=O)=O` (centres undefined), the T/C under setting [14] was 97 % of control, the T/C under setting [15] was 93 % of control and the T/C under setting [16] is 95 % of control.

For the compound `COc1cc(C(=O)O)c(Cc2ccccc2)c(OC)c1O`, the T/C reads like this: (dose: 5.0 mg/kg/injection, schedule: Q01DX001 (ip), vehicle: saline) 95 % of control; (dose: 10.0 mg/kg/injection, schedule: Q01DX001 (ip), vehicle: saline) 97 % of control; (dose: 20.0 mg/kg/injection, schedule: Q01DX001 (ip), vehicle: saline) 95 % of control; (dose: 40.0 mg/kg/injection, schedule: Q01DX001 (ip), vehicle: saline) 95 % of control; (dose: 80.0 mg/kg/injection, schedule: Q01DX001 (ip), vehicle: saline) 95 % of control.

With `NC(=S)NNc1ccccn1`, the T/C runs as follows: (dose: 3.13 mg/kg/injection, schedule: Q01DX009 (ip), vehicle: saline) 108 % of control; (dose: 6.25 mg/kg/injection, schedule: Q01DX009 (ip), vehicle: saline) 96 % of control; (dose: 12.5 mg/kg/injection, schedule: Q01DX009 (ip), vehicle: saline) 101 % of control; (dose: 100.0 mg/kg/injection, schedule: Q04DX002 (ip), vehicle: saline) 94 % of control.

As to `Oc1ccc(Cl)cc1N=Cc1ccccc1`, the T/C is 100 % of control under setting [14], 105 % of control under setting [15] and 107 % of control under setting [16].

`CC12CCC(C3=C1OC(=O)C(c1ccccc1)(c1ccccc1)C3=O)C2(C)C` (centres undefined): the T/C reads like this: under setting [14], 105 % of control; (dose: 100.0 mg/kg/injection, schedule: Q01DX009 (ip), vehicle: saline) 94 % of control; under setting [1], 103 % of control; under setting [15], 113 % of control; (dose: 200.0 mg/kg/injection, schedule: Q01DX009 (ip), vehicle: saline) 102 % of control; under setting [2], 97 % of control. In addition, the T/C is, setting by setting: under setting [16], 97 % of control; (dose: 400.0 mg/kg/injection, schedule: Q01DX009 (ip), vehicle: saline) 100 % of control; (dose: 400.0 mg/kg/injection, schedule: Q04DX003 (ip), vehicle: saline) 103 % of control.

On to `CCCCC(CCCC)NC(C)CO` (centres undefined), for which the T/C (dose: 75.0 mg/kg/injection, schedule: Q01DX001 (ip), vehicle: saline) was 102 % of control.

For the compound `NCNc1nc(NCN)nc(N(CN)CN)n1`, the T/C (dose: 100.0 mg/kg/injection, schedule: Q04DX003 (ip), vehicle: saline with Tween-80) was 92 % of control; the T/C (dose: 200.0 mg/kg/injection, schedule: Q04DX003 (ip), vehicle: saline with Tween-80) was 88 % of control; the T/C (dose: 400.0 mg/kg/injection, schedule: Q04DX003 (ip), vehicle: saline with Tween-80) is 88 % of control.

Turning to `CCN(CC)S(=O)(=O)c1cccc([N+](=O)[O-])c1`, under setting [5], the T/C is 99 % of control.
